Experimental data from US10144742B2 (Millennium Pharmaceuticals, Inc., priority 2014, dated 2018).
Read-outs that look alike come from different tables or passages of the source.

Assays:
[1] = test system: PC3 cells; assay: PC3 growth inhibition (Cell-titer glo, 72 hours); type: cell-based; conditions: Homo sapiens, PC-3, PC3 cells, 72 hours, Cell-titer glo, read-out: Percent Inhibition (PC3 growth inhibition); for inhibition at 1 µM: compound concentration 1 μM; for inhibition at 1.667 µM: compound concentration 1.667 μM
Outline: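 Compounds in AIM serum-free medium were applied for 72 h at 37 °C, 5% CO2 to PC3 cells plated overnight from RPMI1640 culture. Luminescence after 10 min CellTiter-Glo, normalised to DMSO, gave % viability at 1 μM or 1.667 μM, or GI50/LD50.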

[2] = molecular target: hNAMPT protein (Homo sapiens (Human), UniProt P43490); assay: NAMPT enzyme assay (TR-FRET/HTRF, BodiPY ligand, anti 6His-Tb); type: binding; conditions: for IC50: NAMPT IC50 range class, read-out: IC50; for inhibition at 1 µM: read-out: Percent Inhibition
Chain of hNAMPT protein (P43490 whole entry): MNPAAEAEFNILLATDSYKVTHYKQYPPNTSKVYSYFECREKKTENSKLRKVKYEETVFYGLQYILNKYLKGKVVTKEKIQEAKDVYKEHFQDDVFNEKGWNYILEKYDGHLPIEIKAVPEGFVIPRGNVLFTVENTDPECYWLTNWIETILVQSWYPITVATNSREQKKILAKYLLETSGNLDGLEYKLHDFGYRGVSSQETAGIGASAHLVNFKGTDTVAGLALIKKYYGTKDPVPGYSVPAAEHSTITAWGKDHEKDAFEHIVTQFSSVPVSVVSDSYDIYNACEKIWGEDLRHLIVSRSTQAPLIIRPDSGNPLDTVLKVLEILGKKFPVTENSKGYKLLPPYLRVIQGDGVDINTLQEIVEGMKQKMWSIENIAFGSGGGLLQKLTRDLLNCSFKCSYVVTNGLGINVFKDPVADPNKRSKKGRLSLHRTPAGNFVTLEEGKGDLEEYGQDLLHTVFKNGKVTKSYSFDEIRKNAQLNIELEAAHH
Outline: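 Compound or DMSO was incubated for 1 h at room temperature, protected from light, with BodiPY ligand and hNAMPT labelled by terbium anti-6His antibody. The 520 nm to 486 nm emission ratio after 320 nm excitation gave inhibition versus vehicle, from which concentration-response curves yielded IC50.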

SMILES	inhibition at 1 µM [1]	IC50 [2]	inhibition at 1 µM ([2]; compound concentration 1 μM)	inhibition at 1.667 µM [1]	inhibition at 1 µM [2]
CCOC(=O)CCc1ccc(-c2nc3ccc(C(=O)NCCCn4ccnc4)cc3nc2-c2ccccc2)cc1 [Compound I-205, ethyl 3-[4-(6-{[3-(1H-imidazol-1-yl)propyl]carbamoyl}-3-phenylquinoxalin-2-yl)phenyl]propanoate]	104%	100 to 500 nM	84%	–	–
O=C(NCCCn1ccnc1)c1ccc2nc(N3CCCC3)c(-c3ccccc3)nc2c1 [Compound I-206, N-[3-(1H-imidazol-1-yl)propyl]-3-phenyl-2-(pyrrolidin-1-yl)quinoxaline-6-carboxamide]	-7%	100 to 500 nM	75%	–	–
CCN(CC)c1nc2ccc(C(=O)NCCCn3ccnc3)cc2nc1-c1ccccc1 [Compound I-207, 2-(diethylamino)-N-[3-(1H-imidazol-1-yl)propyl]-3-phenylquinoxaline-6-carboxamide]	-7%	100 to 500 nM	69%	–	–
O=C(NCCCn1ccnc1)c1ccc2nc(-c3ccc4cc[nH]c4c3)c(-c3ccccc3)nc2c1 [Compound I-208, N-[3-(1H-imidazol-1-yl)propyl]-2-(1H-indol-6-yl)-3-phenylquinoxaline-6-carboxamide]	-6%	500 to 1000 nM	55%	–	–
O=C(NCCCn1ccnc1)c1ccc2nc(-c3cccc(Cl)c3)c(-c3ccccc3)nc2c1 [Compound I-209, 2-(3-chlorophenyl)-N-[3-(1H-imidazol-1-yl)propyl]-3-phenylquinoxaline-6-carboxamide]	-7%	100 to 500 nM	74%	–	–
O=C(NCCCn1ccnc1)c1ccc2nc(N3CCC(N4CCC(O)CC4)CC3)c(-c3ccccc3)nc2c1 [Compound I-210, 2-(4-hydroxy-1,4′-bipiperidin-1′-yl)-N-[3-(1H-imidazol-1-yl)propyl]-3-phenylquinoxaline-6-carboxamide]	-2%	< 100 nM	95%	–	–
O=C(NCCCc1ncc[nH]1)c1ccc2nc(Cl)c(-c3ccc(F)cc3)nc2c1 [Compound I-211, 2-Chloro-3-(4-fluorophenyl)-N-[3-(1H-imidazol-2-yl)propyl]quinoxaline-6-carboxamide]	–	100 to 500 nM	79%	> 99%	–
O=C(NCCc1ccncc1)c1ccc2nc(-c3ccc(F)cc3)c(-c3ccc(F)cc3)nc2c1 [Compound I-212, 2,3-bis(4-fluorophenyl)-N-[2-(pyridin-4-yl)ethyl]quinoxaline-6-carboxamide]	101%	< 100 nM	95%	–	–
O=C(NCCCc1ncc[nH]1)c1ccc2nc(N3CCC(O)CC3)c(-c3ccc(F)cc3)nc2c1 [Compound I-213, 3-(4-fluorophenyl)-2-(4-hydroxypiperidin-1-yl)-N-[3-(1H-imidazol-2-yl)propyl]quinoxaline-6-carboxamide]	–	< 100 nM	99%	2%	–
Cc1ccc(-c2nc3ccc(C(=O)NCCCn4ccnc4)cc3nc2-c2ccc(C)cc2)cc1 [Compound I-214, N-[3-(1H-imidazol-1-yl)propyl]-2,3-bis(4-methylphenyl)quinoxaline-6-carboxamide]	0%	1000 to 2000 nM	40%	–	–
Cn1ccc(-c2nc3cc(C(=O)NCCCn4ccnc4)ccc3nc2-c2ccccc2)n1 [Compound I-215, N-[3-(1H-imidazol-1-yl)propyl]-3-(1-methyl-1H-pyrazol-3-yl)-2-phenylquinoxaline-6-carboxamide]	19%	2000 to 10000 nM	15%	–	–
O=C(NCCCc1ncc[nH]1)c1ccc2nc(OC3CCCCC3)c(-c3ccc(Cl)cc3)nc2c1 [Compound I-216, 3-(4-chlorophenyl)-2-(cyclohexyloxy)-N-[3-(1H-imidazol-2-yl)propyl]quinoxaline-6-carboxamide]	–	< 100 nM	91%	3%	–
CC(C)(C)OC(=O)NCc1ccccc1-c1nc2cc(C(=O)NCCCn3ccnc3)ccc2nc1-c1ccccc1 [Compound I-217, tert-butyl[2-(7-{[3-(1H-imidazol-1-yl)propyl]carbamoyl}-3-phenylquinoxalin-2-yl)benzyl]carbamate]	95%	2000 to 10000 nM	26%	–	–
COc1cccc(-c2nc3cc(C(=O)NCCCn4ccnc4)ccc3nc2-c2ccccc2)c1 [Compound I-218, N-[3-(1H-imidazol-1-yl)propyl]-3-(3-methoxyphenyl)-2-phenylquinoxaline-6-carboxamide]	0%	< 100 nM	100%	–	–
N#Cc1cccc(-c2nc3ccc(C(=O)NCCCn4ccnc4)cc3nc2-c2ccccc2)c1 [Compound I-219, 2-(3-cyanophenyl)-N-[3-(1H-imidazol-1-yl)propyl]-3-phenylquinoxaline-6-carboxamide]	-7%	100 to 500 nM	74%	–	–
O=C(NCc1ccc2[nH]ncc2c1)c1ccc2nc(N3CCCCC3)c(-c3ccc(F)cc3)nc2c1 [Compound I-220, 3-(4-Fluorophenyl)-N-(1H-indazol-5-ylmethyl)-2-(piperidin-1-yl)quinoxaline-6-carboxamide]	–	100 to 500 nM	–	4%	68%
O=C(NCCOc1cccnc1)c1ccc2nc(N3CCC(N4CCOCC4)CC3)c(-c3ccc(F)cc3)nc2c1 [Compound I-221, 3-(4-fluorophenyl)-2-[4-(morpholin-4-yl)piperidin-1-yl]-N-[2-(pyridin-3-yloxy)ethyl]quinoxaline-6-carboxamide]	–	< 100 nM	> 99%	2%	–
CC(C)Oc1nc2ccc(C(=O)NCCCc3ncc[nH]3)cc2nc1-c1ccc(Cl)cc1 [Compound I-222, 3-(4-chlorophenyl)-N-[3-(1H-imidazol-2-yl)propyl]-2-isopropoxyquinoxaline-6-carboxamide]	–	< 100 nM	92%	12%	–
CC(=O)Nc1ccc(-c2nc3cc(C(=O)NCCCn4ccnc4)ccc3nc2-c2ccccc2)cc1 [Compound I-223, 3-(4-acetamidophenyl)-N-[3-(1H-imidazol-1-yl)propyl]-2-phenylquinoxaline-6-carboxamide]	103%	2000 to 10000 nM	10%	–	–
O=C(NCCCn1ccnc1)c1ccc2nc(-c3ccccc3)c(-c3cccc(Cl)c3)nc2c1 [Compound I-224, 3-(3-chlorophenyl)-N-[3-(1H-imidazol-1-yl)propyl]-2-phenylquinoxaline-6-carboxamide]	1%	100 to 500 nM	74%	–	–
O=C(c1ccc2nc(-c3ccc(F)cc3)c(-c3ccc(F)cc3)nc2c1)N1CCc2[nH]ncc2C1 [Compound I-225, [2,3-bis(4-fluorophenyl)quinoxalin-6-yl](1,4,6,7-tetrahydro-5H-pyrazolo[4,3-c]pyridin-5-yl)methanone]	91%	2000 to 10000 nM	14%	–	–
COC1CCN(c2nc3ccc(C(=O)NCCCn4ccnc4)cc3nc2-c2ccccc2)C1 (stereo not drawn) [Compound I-226, N-[3-(1H-imidazol-1-yl)propyl]-2-(3-methoxypyrrolidin-1-yl)-3-phenylquinoxaline-6-carboxamide]	-7%	100 to 500 nM	70%	–	–
O=C(NCCCn1ccnc1)c1ccc2nc(-c3ccccc3)c(-c3ccc4cc[nH]c4c3)nc2c1 [Compound I-227, N-[3-(1H-imidazol-1-yl)propyl]-3-(1H-indol-6-yl)-2-phenylquinoxaline-6-carboxamide]	1%	500 to 1000 nM	68%	–	–
CCOc1cccc(-c2nc3ccc(C(=O)NCCCn4ccnc4)cc3nc2-c2ccccc2)c1 [Compound I-228, 2-(3-ethoxyphenyl)-N-[3-(1H-imidazol-1-yl)propyl]-3-phenylquinoxaline-6-carboxamide]	-8%	100 to 500 nM	80%	–	–
O=C(NCCCc1ccncc1)c1ccc2nc(-c3ccc(F)cc3)c(-c3ccc(F)cc3)nc2c1 [Compound I-229, 2,3-bis(4-fluorophenyl)-N-[3-(pyridin-4-yl)propyl]quinoxaline-6-carboxamide]	95%	100 to 500 nM	73%	–	–
O=C(NCCCn1ccnc1)c1ccc2nc(C3=CCCC3)c(-c3ccccc3)nc2c1 [Compound I-230, 2-(cyclopent-1-en-1-yl)-N-[3-(1H-imidazol-1-yl)propyl]-3-phenylquinoxaline-6-carboxamide]	-7%	500 to 1000 nM	62%	–	–
CC(C)(C)OC(=O)NCC1(O)CCN(C2CCN(c3nc4ccc(C(=O)NCCCn5ccnc5)cc4nc3-c3ccccc3)CC2)CC1 [Compound I-231, tert-Butyl {[4-hydroxy-1′-(6-{[3-(1H-imidazol-1-yl)propyl]carbamoyl}-3-phenylquinoxalin-2-yl)-1,4′-bipiperidin-4-yl]methyl}carbamate]	-2%	< 100 nM	95%	–	–
O=C(NCCCc1ncc[nH]1)c1ccc2nc(N3CCCCC3)c(-c3ccc(F)cc3)nc2c1 [Compound I-232, 3-(4-fluorophenyl)-N-[3-(1H-imidazol-2-yl)propyl]-2-(piperidin-1-yl)quinoxaline-6-carboxamide]	–	< 100 nM	> 99%	2%	–
